Experimental data: patent US8802597B2, “Herbicidal pyrimidines” (E I du Pont de Nemours and Company, priority 2003, dated 2014)

Experiments:
Assay type in all cases: in vivo
[1] = test system: barnyardgrass (Echinochloa crus-galli); assay: Test B flooded paddy test; conditions: Flood, 1000 g ai/ha; scale 0 (no effect) to 100 (complete control)
Procedure, shortened: (§1)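 Plants were grown to the 2-leaf stage before treatment, then kept in a greenhouse for 13 to 15 days. Injury was rated visually against untreated controls on a 0 to 100 scale, where 0 is no effect and 100 is complete control.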

rice (Oryza sativa) = assay: Test B flooded paddy test; conditions: Flood, 1000 g ai/ha; scale 0 to 100
Procedure, shortened: as §1

[2] = test system: duck salad (Heteranthera limosa); assay: Test B flooded paddy test; conditions: Flood, 1000 g ai/ha; scale 0 to 100
Procedure, shortened: as §1

[3] = test system: umbrella sedge (Cyperus difformis); assay: Test B flooded paddy test; conditions: Flood, 1000 g ai/ha; scale 0 to 100
Procedure, shortened: as §1

wild oat (Avena fatua) = assay: Test B postemergence; conditions: for Oat, Wild plant response rating: 125 g ai/ha, scale 0 to 100 (0 no effect, 100 complete control); for Plant response rating, Oat, Wild: 500 g ai/ha, scale 0 to 100
Procedure, shortened: (§2)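 Visual rating, 0 (no effect) to 100 (complete control) versus controls, taken 13–15 days after treatment in greenhouse. Compounds formulated in non-phytotoxic solvent plus surfactant; pre: sprayed after seeding; post: plants at 1- to 4-leaf stage, 2–18 cm.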

[4] = test system: blackgrass (Alopecurus myosuroides); assay: Test B postemergence; conditions: for Blackgrass plant response rating: 125 g ai/ha, scale 0 to 100 (0 no effect, 100 complete control); for Plant response rating, Blackgrass: 500 g ai/ha, scale 0 to 100
Procedure, shortened: as §2

[5] = test system: giant foxtail (Setaria faberii); assay: Test B pre/postemergence
Procedure, shortened: as §2

[6] = test system: cocklebur (Xanthium strumarium); assay: Test B pre/postemergence
Procedure, shortened: as §2

[7] = test system: pigweed (Amaranthus retroflexus); assay: Test B pre/postemergence
Procedure, shortened: as §2

[8] = test system: barnyardgrass (Echinochloa crus-galli); assay: Test B pre/postemergence
Procedure, shortened: as §2

[9] = test system: wheat (Triticum aestivum); assay: Test B pre/postemergence
Procedure, shortened: as §2

corn (Zea mays) = assay: Test B pre/postemergence
Procedure, shortened: as §2

[10] = test system: morningglory (Ipomoea coccinea); assay: Test B pre/postemergence
Procedure, shortened: as §2

[11] = test system: lambsquarters (Chenopodium album); assay: Test B pre/postemergence
Procedure, shortened: as §2

[12] = test system: velvetleaf (Abutilon theophrasti); assay: Test B pre/postemergence
Procedure, shortened: as §2

[13] = test system: Surinam grass (Brachiaria decumbens); assay: Test B pre/postemergence
Procedure, shortened: as §2

[14] = test system: crabgrass (Digitaria sanguinalis); assay: Test B pre/postemergence
Procedure, shortened: as §2

[15] = Postemergence, 125 g ai/ha, scale 0 to 100 (0 no effect, 100 complete control)
[16] = Postemergence, 500 g ai/ha, scale 0 to 100
[17] = Preemergence, 125 g ai/ha, scale 0 to 100 (0 no effect, 100 complete control)
[18] = Preemergence, 500 g ai/ha, scale 0 to 100 (0 no effect, 100 complete control)

## CNN=Cc1nc(C2CC2)nc(N)c1Br [Compound 49]
[1]
  Plant response rating, Barnyardgrass: 50
Rice (Oryza sativa)
  Plant response rating, Rice: 30
[2]
  Plant response rating, Ducksalad: 60
[3]
  Plant response rating, Sedge, Umbrella: 70
Wild oat (Avena fatua)
  Oat, Wild plant response rating: 30
  Plant response rating, Oat, Wild: 60
[4]
  Blackgrass plant response rating: 20
  Plant response rating, Blackgrass: 50
[5]; [15]
  Foxtail, Giant plant response rating: 10
[5]; [16]
  Plant response rating, Foxtail, Giant: 70
[5]; [17]
  Plant response rating, Foxtail, Giant: 40
[5]; [18]
  Foxtail, Giant plant response rating: 70
[6]; [15]
  Cocklebur plant response rating: 90
[6]; [16]
  Plant response rating, Cocklebur: 100
[6]; [17]
  Plant response rating, Cocklebur: 80
[6]; [18]
  Cocklebur plant response rating: 90
[7]; [15]
  Pigweed plant response rating: 90
[7]; [16]
  Plant response rating, Pigweed: 90
[7]; [17]
  Plant response rating, Pigweed: 90
[7]; [18]
  Pigweed plant response rating: 100
[8]; [15]
  Barnyardgrass plant response rating: 30
[8]; [16]
  Plant response rating, Barnyardgrass: 70
[8]; [17]
  Plant response rating, Barnyardgrass: 30
[8]; [18]
  Barnyardgrass plant response rating: 60
[9]; [15]
  Wheat plant response rating: 30
[9]; [16]
  Plant response rating, Wheat: 40
[9]; [17]
  Plant response rating, Wheat: 30
[9]; [18]
  Plant response rating, Wheat: 70
Corn (Zea mays); [15]
  Corn plant response rating: 0
Corn (Zea mays); [16]
  Plant response rating, Corn: 30
Corn (Zea mays); [17]
  Plant response rating, Corn: 10
Corn (Zea mays); [18]
  Corn plant response rating: 40
[10]; [15]
  Morningglory plant response rating: 90
[10]; [16]
  Plant response rating, Morningglory: 100
[10]; [17]
  Plant response rating, Morningglory: 80
[10]; [18]
  Morningglory plant response rating: 100
[11]; [15]
  Lambsquarters plant response rating: 80
[11]; [16]
  Plant response rating, Lambsquarters: 90
[11]; [17]
  Plant response rating, Lambsquarters: 90
[11]; [18]
  Lambsquarters plant response rating: 100
[12]; [15]
  Velvetleaf plant response rating: 50
[12]; [16]
  Plant response rating, Velvetleaf: 80
[12]; [17]
  Plant response rating, Velvetleaf: 80
[12]; [18]
  Velvetleaf plant response rating: 90
[13]; [15]
  Surinam Grass plant response rating: 10
[13]; [16]
  Plant response rating, Surinam Grass: 60
[13]; [17]
  Plant response rating, Surinam Grass: 40
[13]; [18]
  Surinam Grass plant response rating: 60
[14]; [15]
  Crabgrass plant response rating: 30
[14]; [16]
  Plant response rating, Crabgrass: 80
[14]; [17]
  Plant response rating, Crabgrass: 80
[14]; [18]
  Crabgrass plant response rating: 90

## CN(C)N=Cc1nc(C2CC2)nc(N)c1Br [Compound 50]
[1]
  Plant response rating, Barnyardgrass: 30
Rice (Oryza sativa)
  Plant response rating, Rice: 30
[2]
  Plant response rating, Ducksalad: 40
[3]
  Plant response rating, Sedge, Umbrella: 0
Wild oat (Avena fatua)
  Oat, Wild plant response rating: 30
  Plant response rating, Oat, Wild: 60
[4]
  Blackgrass plant response rating: 30
  Plant response rating, Blackgrass: 50
[5]; [15]
  Foxtail, Giant plant response rating: 20
[5]; [16]
  Plant response rating, Foxtail, Giant: 70
[5]; [17]
  Plant response rating, Foxtail, Giant: 10
[5]; [18]
  Plant response rating, Foxtail, Giant: 40
[6]; [15]
  Cocklebur plant response rating: 90
[6]; [16]
  Plant response rating, Cocklebur: 90
[6]; [17]
  Plant response rating, Cocklebur: 80
[6]; [18]
  Plant response rating, Cocklebur: 90
[7]; [15]
  Pigweed plant response rating: 80
[7]; [16]
  Plant response rating, Pigweed: 90
[7]; [17]
  Plant response rating, Pigweed: 70
[7]; [18]
  Plant response rating, Pigweed: 90
[8]; [15]
  Barnyardgrass plant response rating: 10
[8]; [16]
  Plant response rating, Barnyardgrass: 50
[8]; [17]
  Plant response rating, Barnyardgrass: 30
[8]; [18]
  Plant response rating, Barnyardgrass: 50
[9]; [15]
  Wheat plant response rating: 30
[9]; [16]
  Plant response rating, Wheat: 60
[9]; [17]
  Plant response rating, Wheat: 20
[9]; [18]
  Plant response rating, Wheat: 40
Corn (Zea mays); [15]
  Corn plant response rating: 0
Corn (Zea mays); [16]
  Plant response rating, Corn: 40
Corn (Zea mays); [17]
  Plant response rating, Corn: 20
Corn (Zea mays); [18]
  Plant response rating, Corn: 20
[10]; [15]
  Morningglory plant response rating: 90
[10]; [16]
  Plant response rating, Morningglory: 90
[10]; [17]
  Plant response rating, Morningglory: 80
[10]; [18]
  Plant response rating, Morningglory: 90
[11]; [15]
  Lambsquarters plant response rating: 80
[11]; [16]
  Plant response rating, Lambsquarters: 90
[11]; [17]
  Plant response rating, Lambsquarters: 90
[11]; [18]
  Plant response rating, Lambsquarters: 100
[12]; [15]
  Velvetleaf plant response rating: 70
[12]; [16]
  Plant response rating, Velvetleaf: 90
[12]; [17]
  Plant response rating, Velvetleaf: 80
[12]; [18]
  Plant response rating, Velvetleaf: 90
[13]; [15]
  Surinam Grass plant response rating: 20
[13]; [16]
  Plant response rating, Surinam Grass: 60
[13]; [17]
  Plant response rating, Surinam Grass: 20
[13]; [18]
  Plant response rating, Surinam Grass: 70
[14]; [15]
  Crabgrass plant response rating: 40
[14]; [16]
  Plant response rating, Crabgrass: 80
[14]; [17]
  Plant response rating, Crabgrass: 50
[14]; [18]
  Plant response rating, Crabgrass: 80
